Where two headings read alike, the source gives them in different places.
Assays:
[1] = test system: PAD enzyme activity (i.e. PAD2 and PAD4); conditions: after addition of 2CA to human brain extracts; cited from earlier work
MOG-EAE model = conditions: cited from earlier work
ND4 mouse = conditions: cited from earlier work
human PAD4 = human PAD4 (Homo sapiens, UniProt Q9UM07); assay: Inhibition of PAD4 enzyme activity (BAEE substrate, colorimetric, 530 nm); format: biochemical
MOG-EAE mouse model = assay: MOG-EAE mouse model, compound of Formula (Ia); format: in vivo, C57BL/6 mice
Description: On day 8 after the induction of EAE, mice received 2 mg of the compound of Formula ([…].) every other day until day 23. […] Mice were sacrificed on day 24 (i.e. after 2 weeks of treatment) and anti-CD3 staining on spinal cord and brain samples was undertaken.

human PAD1 = target: T1, human PAD1 (Homo sapiens, UniProt Q9ULC6); assay: Inhibition of PAD1 enzyme activity (BAEE substrate, colorimetric, 530 nm); format: biochemical; conditions: for Ki: Table 2, read-out: PAD Ki ± SE (μM), PAD1
T1 sequence (Q9ULC6 1-663): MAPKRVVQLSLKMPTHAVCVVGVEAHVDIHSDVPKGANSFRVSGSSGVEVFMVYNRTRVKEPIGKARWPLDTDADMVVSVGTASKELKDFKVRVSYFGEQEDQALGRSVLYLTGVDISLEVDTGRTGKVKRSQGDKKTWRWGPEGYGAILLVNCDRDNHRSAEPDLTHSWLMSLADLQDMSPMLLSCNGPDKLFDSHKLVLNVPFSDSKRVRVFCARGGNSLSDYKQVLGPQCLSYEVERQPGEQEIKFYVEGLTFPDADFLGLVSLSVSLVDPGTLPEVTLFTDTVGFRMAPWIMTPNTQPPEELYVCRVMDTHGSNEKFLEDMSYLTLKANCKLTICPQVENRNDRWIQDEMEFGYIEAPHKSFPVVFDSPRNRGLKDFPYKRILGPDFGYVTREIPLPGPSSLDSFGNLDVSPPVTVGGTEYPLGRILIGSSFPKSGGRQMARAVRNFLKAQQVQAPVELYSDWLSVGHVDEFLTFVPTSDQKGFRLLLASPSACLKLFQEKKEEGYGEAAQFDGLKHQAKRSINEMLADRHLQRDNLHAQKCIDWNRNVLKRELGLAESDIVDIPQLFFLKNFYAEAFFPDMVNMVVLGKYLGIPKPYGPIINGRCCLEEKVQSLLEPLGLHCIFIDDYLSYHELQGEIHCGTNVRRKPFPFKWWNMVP
Description: Control reaction contained no inhibitor. Enzyme was added to initiate the reaction. The reaction samples were incubated at 37° C. for 30 min. Color reagent was added and the samples were boiled for 15 min. Samples were cooled on ice, further processed, and the absorbance was measured at 530 nm. Remaining activity was calculated as a percentage of the uninhibited samples.

rabbit PAD2 = rabbit PAD2 (Oryctolagus cuniculus, UniProt G1T837); assay: Inhibition of PAD2 enzyme activity; format: biochemical; conditions: for IC50: rabbit PAD2, Table 1
mice = assay: Mouse toxicity studies; format: in vivo
[2] = In vitro cellular toxicity to CHO cells; format: cell-based; conditions: Chinese hamster, read-out: CHO cells IC50 ± SE
[3] = Example 8, read-out: equilibrium inhibition constant Ki against PAD2
[4] = Table 2, read-out: PAD Ki ± SE (μM), PAD4

Sequence of rabbit PAD2 (G1T837 1-665): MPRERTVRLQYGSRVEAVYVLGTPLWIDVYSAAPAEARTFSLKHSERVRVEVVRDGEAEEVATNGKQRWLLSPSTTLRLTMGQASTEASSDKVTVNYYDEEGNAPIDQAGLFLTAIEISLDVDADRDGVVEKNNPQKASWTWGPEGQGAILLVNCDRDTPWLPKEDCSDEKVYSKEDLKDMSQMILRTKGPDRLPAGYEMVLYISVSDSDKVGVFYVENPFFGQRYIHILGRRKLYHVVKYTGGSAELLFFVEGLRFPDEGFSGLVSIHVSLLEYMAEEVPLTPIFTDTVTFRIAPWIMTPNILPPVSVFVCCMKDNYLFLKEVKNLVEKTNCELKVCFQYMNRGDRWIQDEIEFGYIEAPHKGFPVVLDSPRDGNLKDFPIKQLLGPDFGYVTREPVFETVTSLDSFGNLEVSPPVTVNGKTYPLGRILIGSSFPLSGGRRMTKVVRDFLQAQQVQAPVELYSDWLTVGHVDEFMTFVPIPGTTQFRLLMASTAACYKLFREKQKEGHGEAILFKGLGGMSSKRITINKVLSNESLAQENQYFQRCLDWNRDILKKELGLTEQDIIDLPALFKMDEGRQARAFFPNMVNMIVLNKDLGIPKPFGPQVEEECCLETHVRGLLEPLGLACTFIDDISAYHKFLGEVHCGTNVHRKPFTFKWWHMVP
Sequence of human PAD4 (Q9UM07 whole entry): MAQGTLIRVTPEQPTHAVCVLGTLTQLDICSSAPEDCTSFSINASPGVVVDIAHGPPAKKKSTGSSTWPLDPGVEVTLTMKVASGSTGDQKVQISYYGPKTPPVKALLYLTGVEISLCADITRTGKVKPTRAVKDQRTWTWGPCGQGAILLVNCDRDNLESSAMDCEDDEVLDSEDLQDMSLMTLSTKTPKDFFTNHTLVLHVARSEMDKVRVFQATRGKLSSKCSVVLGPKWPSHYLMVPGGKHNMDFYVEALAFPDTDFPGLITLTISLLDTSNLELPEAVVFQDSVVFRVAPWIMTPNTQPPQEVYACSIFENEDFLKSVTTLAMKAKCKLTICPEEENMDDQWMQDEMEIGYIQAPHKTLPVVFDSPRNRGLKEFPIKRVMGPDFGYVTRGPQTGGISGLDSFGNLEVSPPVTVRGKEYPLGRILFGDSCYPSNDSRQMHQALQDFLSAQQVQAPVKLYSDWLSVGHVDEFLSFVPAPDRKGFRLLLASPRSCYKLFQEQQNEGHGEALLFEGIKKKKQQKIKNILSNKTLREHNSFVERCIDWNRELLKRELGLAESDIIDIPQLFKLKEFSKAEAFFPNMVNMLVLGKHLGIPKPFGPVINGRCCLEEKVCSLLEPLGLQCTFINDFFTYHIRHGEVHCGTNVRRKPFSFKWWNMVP

Question: With `N=C(N)CCl` [Compound 2CA, 2-chloroacetamidine] as the compound, how does the “PAD activity in NAWM extracts” value [1] read?
Answer: declined

Question: What about the “survival by day 30” value (MOG-EAE model; 5 mg/kg i.p. every other day starting day 9) of the same compound?
Answer: ~50%

Question: And the “PAD activity in brain white matter” value (MOG-EAE model; EAE mice)?
Answer: effectively attenuated

Question: What about the “PAD activity in spinal cord” value (MOG-EAE model; EAE mice) of the same compound?
Answer: reductions to normal levels

Question: What about the relapse (MOG-EAE model; treated group) of the same compound?
Answer: No relapse

Question: What about the disease lethality (MOG-EAE model; treatment started before immunization) of the same compound?
Answer: zero

Question: What about the “disease progression in ND4 mice, treatment after early onset” value (ND4 mouse; 5 mg/kg i.p. every other day, from 3.5 months up to 6 months of age) of the same compound?
Answer: did not show disease progression

Question: And the “disease in ND4 mice, treatment before onset” value (ND4 mouse; 5 mg/kg i.p. every other day, started at 2 months of age)?
Answer: essentially prevented the disease

Question: What about the “PAD activity in brain” value (ND4 mouse; ND4 mice, right after cessation of treatment at 6 months) of the same compound?
Answer: attenuated

Question: And the “deaths in the treatment groups” value (ND4 mouse; ND4 mice, until 6 months of age)?
Answer: none died

Question: And the “G-ratio (axon diameter/fiber diameter), optic nerve” value (ND4 mouse; treated ND4 mice, healthy littermates 0.74+0.13, ND4 0.96+0.3)?
Answer: 0.9+0.15

Question: What does the source list for `CC1(C)NC(=O)N(CN2CCNCC2)C1=O` [Formula (Ia)]?
Answer: IC50 (human PAD4): 48.3 ± 7.4 µM; Ki (human PAD4): 7.4 µM; IC50 (human PAD4; read-out: IC50 (μM), PAD4, human PAD4, Table 1, varies with salt form and batch of the enzyme): ≤ 3820 µM; inhibition at 30 µM (human PAD4; read-out: Inhibition of the enzyme activity): 78%; clinical scores (MOG-EAE mouse model; 2 mg b.i.d. i.p. every other day, day 8 to day 23, control group higher than 2): ~1; CD3 markers in brain (MOG-EAE mouse model; anti-CD3 staining, sacrificed day 24, untreated 4.8±0.19): 3.8±0.23 /mm^2; PAD activity in treated brain samples (MOG-EAE mouse model; sacrificed day 24): much reduced; IC50 (human PAD1; Table 1): 763 µM; Ki (rabbit PAD2): 0.93 µM; general toxicity (mice; 10 mg/mouse for 5 days): no general toxicity; general toxicity (mice; single 20 mg/mouse dose): no general toxicity

Question: For `CCOC(=O)CC1(C)NC(=O)N(CN2CCNCC2)C1=O` (centres unmarked) [Formula (Ib), Ethyl [4-methyl-2,5-dioxo-1-(piperazin-1-ylmethyl)imidazolidin-4-yl]acetate], which IC50 (human PAD4; human PAD4, Table 1, varies with salt form and batch of the enzyme, read-out: IC50 (μM), PAD4) is on record?
Answer: 36 ± 18 µM

Question: What about the Ki (rabbit PAD2; [3]) of the same compound?
Answer: 0.46 µM

Question: What about the IC50 (rabbit PAD2) of the same compound?
Answer: 12.3 ± 4.8 µM

Question: With `CC(C)(C)OC(=O)CC1(C)NC(=O)N(CN2CCNCC2)C1=O` (centres unmarked) [Formula (Ic), tert-Butyl-[4-methyl-2,5-dioxo-1-(piperazin-1-ylmethyl)imidazolidin-4-yl]acetate] as the compound, how does the Ki (rabbit PAD2; [3]) read?
Answer: 0.65 µM

Question: What about the IC50 (rabbit PAD2) of the same compound?
Answer: 16.8 ± 7 µM

Question: Which results are given for `CN1CCN(CN2C(=O)NC(C)(C)C2=O)CC1` [I(e)]?
Answer: Ki (human PAD4; [4]): 45.6 ± 9 µM; IC50 [2]: 143 ± 4 µM; Ki (human PAD1): 115 ± 5.5 µM

Question: Which Ki (human PAD4; [4]) does the source give for `CC1(C)NC(=O)N(CCn2ccnc2)C1=O` [I(g)] here?
Answer: 4 ± 1.7 µM

Question: What about the IC50 [2] of the same compound?
Answer: 1990 ± 823 µM

Question: What about the Ki (human PAD1) of the same compound?
Answer: 110 ± 4 µM

Question: For `CC1(C)NC(=O)N(CCNCC(N)=O)C1=O` [I(h)], which “Inhibition of PAD4, in words” value (human PAD4) is on record?
Answer: good activity

Question: And the Ki (human PAD4; [4])?
Answer: 21.8 ± 7.1 µM

Question: What about the Ki (human PAD1) of the same compound?
Answer: 33.6 ± 2.6 µM

Question: With `CC1(C)NC(=O)N(CCN)C1=O` [I(i)] as the compound, how does the Ki (human PAD4; [4]) read?
Answer: 317 ± 32.8 µM

Question: And the IC50 [2]?
Answer: 5840 ± 2370 µM

Question: What about the Ki (human PAD1) of the same compound?
Answer: 117 ± 41.1 µM

Question: For `CC1(C)NC(=O)N(CCNCCN)C1=O` [I(j)], which Ki (human PAD4; [4]) is on record?
Answer: 52 ± 34.1 µM

Question: And the IC50 [2]?
Answer: 2690 ± 175 µM

Question: What about the Ki (human PAD1) of the same compound?
Answer: 55.5 ± 12.3 µM

Question: Which results are given for `CC1(C)NC(=O)N(CCCN)C1=O` [I(k)]?
Answer: Ki (human PAD4; [4]): 384 ± 41 µM; Ki (human PAD1): 105 ± 22.1 µM

Question: For `CC1(C)NC(=O)N(CCCNCCN)C1=O` [I(l)], which Ki (human PAD4; [4]) is on record?
Answer: 123 ± 14.7 µM

Question: What about the IC50 [2] of the same compound?
Answer: 16700 ± 31600 µM

Question: What about the Ki (human PAD1) of the same compound?
Answer: 42.9 ± 5 µM

From US9908853B2, “Inhibitors of peptidyl arginine deiminase (PAD) enzymes and uses thereof” (University Health Network, priority 2012, dated 2018)
